Assay results published in US5093339A, “Pyrano[f]quinoline derivatives and pharmaceutical compositions containing the same” (Kodama Kabushiki Kaisha, priority 1988, dated 1992).
Read-outs that look alike come from different tables or passages of the source.

Columns and labels:
[1] = system: platelet plasma (platelet-rich plasma of rabbit); assay: Platelet aggregation inhibitory action (Test Example 1), rabbit platelet plasma, aggregation by ADP, PAF, AA or collagen; assay type: cell-based
Procedure: For evaluating the platelet aggregation inhibitory action of the present compounds, platelet plasma containing 5×10^5 of platelets in 1 μl of plasma was prepared by appropriately mixing platelet-rich plasma (PRP) of rabbit with platelet-poor plasma (PPP). By using the platelet plasma, the present compounds were measured on 50% inhibitory efficacy (IC 50) against each of platelet aggregation accelerators, 10 μM of adenosine diphosphate (ADP), 0.01 μg/ml of platelet activation factor (PAF), 300 μM of arachidonic acid (AA) and 30 μg/ml of collagen.

[2] = system: blood pressure; assay: Blood pressure-reducing action (Test Example 2); assay type: in vivo, dog; conditions: dogs, i.v., dissolved in dimethylsulfoxide; for ED20: Canis lupus familiaris, iv, read-out: ED20, dose effective to reduce the blood pressure by 20%
Procedure: In order to evaluate the blood pressure-reducing action of the present compounds, each of the compounds was dissolved in dimethylsulfoxide and administered intravenously to dogs. After administration, a dose of the compound effective to reduce the blood pressure by 20% (ED20 :mg/Kg) was measured.

[3] = system: carotid blood-flow; assay: Blood-flow increasing action (Test Example 3), carotid; assay type: in vivo, dog; conditions: Canis lupus familiaris, iv; dogs, i.v., dissolved in dimethylsulfoxide; read-out: Carotid blood-flow increasing action (ED30), dose required to increase the blood-flow in the carotid by 30%
Procedure: In order to evaluate the blood-flow increasing action of the present compounds, each of the compounds was dissolved in dimethylsulfoxide and administered intravenously to dogs. After administration, a dose required to increase the blood-flow in the carotid by 30% was determined.

[4] = Acute toxicity test (Test Example 4); conditions: in vivo; oral administration to mouse, suspended in carboxymethyl cellulose; read-out: LD50, 50% lethal dose
Procedure: Each of the present compounds suspended in a carboxymethyl cellulose was administered orally to a mouse and a 50% lethal dose (LD50) was measured. There was not observed any dead mouse even with the administration as high as 2,000 mg/Kg.

[5] = Oryctolagus cuniculus, 0.01 μg/ml platelet activation factor (PAF), read-out: 50% inhibitory efficacy (IC 50), PAF, Coagulant (ID50)
[6] = Oryctolagus cuniculus, 10 μM adenosine diphosphate (ADP), read-out: 50% inhibitory efficacy (IC 50), ADP, Coagulant (ID50)
[7] = Oryctolagus cuniculus, 30 μg/ml collagen, read-out: 50% inhibitory efficacy (IC 50), Collagen, Coagulant (ID50)
[8] = Oryctolagus cuniculus, 300 μM arachidonic acid (AA), read-out: 50% inhibitory efficacy (IC 50), AA, Coagulant (ID50)

Row | IC50 ([1]; 0.01 μg/ml platelet activation factor (PAF), read-out: 50% inhibitory efficacy (IC 50), PAF, Coagulant (ID50)) | IC50 ([1]; 10 μM adenosine diphosphate (ADP), read-out: 50% inhibitory efficacy (IC 50), ADP, Coagulant (ID50)) | IC50 ([1]; 30 μg/ml collagen, read-out: 50% inhibitory efficacy (IC 50), Collagen, Coagulant (ID50)) | IC50 ([1]; 300 μM arachidonic acid (AA), read-out: 50% inhibitory efficacy (IC 50), AA, Coagulant (ID50)) | IC50 [1, 5] | IC50 [1, 6] | IC50 [1, 7] | IC50 [1, 8] | Molecule | ED20, dose effective to reduce the blood pressure by 20% [2] | ED20 [2] | ED30 [3] | LD50 [4]
1 | 45 µM | 30 µM | 30 µM | 21 µM |  |  |  |  | 3,3-dimethyl-1-hydroxy-3H-pyrano [3,2-f]quinoline-8(7H)-one [Preparation Example 9] | 1.5 mg/kg |  |  | 
2 |  |  |  |  | 8 µM | 5 µM | 5 µM | 3 µM | CC1CCc2c(ccc3[nH]c(=O)ccc23)O1 (stereo not shown) [Preparation Example 1, 3-methyl-1,2-dihydro-3H-pyrano[3,2-f]quinoline-8(7H)-one] |  | 1.2 mg/kg |  | 
3 |  |  |  |  | 6 µM | 5 µM | 7 µM | 5 µM | CC1(C)CCc2c(ccc3[nH]c(=O)ccc23)O1 [Preparation Example 2, 3,3-dimethyl-1,2-dihydro-3H-pyrano[3,2-f]quinoline-8(7H)-one] |  | 1.2 mg/kg | 0.009 mg/kg | 
4 |  |  |  |  | 22 µM | 20 µM | 21 µM | 16 µM | CC1(C)CCc2c(ccc3c2CCC(=O)N3)O1 [Preparation Example 3, 3,3-dimethyl-1,2,9,10-tetrahydro-3H-pyrano [3,2-f]quinoline-8(7H)-one] |  | 0.4 mg/kg | 0.03 mg/kg | 
5 |  |  |  |  | 25 µM | 30 µM | 20 µM | 18 µM | O=c1ccc2c3c(ccc2[nH]1)OCC=C3 [Preparation Example 4, 3,3-dihydro-3H-pyrano[3,2-f]quinoline-8(7H)-one] |  | 0.5 mg/kg | 0.066 mg/kg | 

The next lines start with the molecule.

Row | Molecule | IC50 ([1]; 0.01 μg/ml platelet activation factor (PAF), read-out: 50% inhibitory efficacy (IC 50), PAF, Coagulant (ID50)) | IC50 ([1]; 10 μM adenosine diphosphate (ADP), read-out: 50% inhibitory efficacy (IC 50), ADP, Coagulant (ID50)) | IC50 ([1]; 30 μg/ml collagen, read-out: 50% inhibitory efficacy (IC 50), Collagen, Coagulant (ID50)) | IC50 ([1]; 300 μM arachidonic acid (AA), read-out: 50% inhibitory efficacy (IC 50), AA, Coagulant (ID50)) | IC50 [1, 5] | IC50 [1, 6] | IC50 [1, 7] | IC50 [1, 8] | ED20, dose effective to reduce the blood pressure by 20% [2] | ED20 [2] | ED30 [3] | LD50 [4]
6 | O=c1ccc2c3c(ccc2[nH]1)OCCC3 [Preparation Example 5, 1,2,3,3-tetrahydro-3H-pyrano-[3,2-f]quinoline-8(7H)-one] |  |  |  |  | 8 µM | 3 µM | 6 µM | 4 µM |  | 1.6 mg/kg | 0.0094 mg/kg | ≥ 2000 mg/kg
7 | O=c1ccc2c3c(ccc2[nH]1)OCC(O)C3 (stereo not shown) [Preparation Example 6, 2-hydroxy-1,2,3,3-tetrahydro-3H-pyrano [3,2-f]quinoline-8(7H)-one] |  |  |  |  | 47 µM | 30 µM | 25 µM | 21 µM |  | 1.5 mg/kg | 0.19 mg/kg | ≥ 2000 mg/kg
8 | CC1(C)Oc2ccc3[nH]c(=O)ccc3c2CC1O (stereo not shown) [Preparation Example 7, 3,3-dimethyl-1,2-hydroxy-1,2-dihydro-3 H-pyrano[3,2-f]quinoline-8(7H)-one] |  |  |  |  | 21 µM | 20 µM | 13 µM | 13 µM |  | 1.6 mg/kg |  | 
9 | O=c1ccc2c3c(ccc2[nH]1)OCCC3O (stereo not shown) [Preparation Example 8, 1-hydroxy-1,2,3,3-tetrahydro-3H-pyrano[3,2-f]quinoline-8(7H)-one] |  |  |  |  | 25 µM | 20 µM | 18 µM | 18 µM |  | 1.8 mg/kg |  | 
